Measured values published in paper PMC7023430, “4-Aminobenzoic Acid Derivatives: Converting Folate Precursor to Antimicrobial and Cytotoxic Agents” (Biomolecules, 2019).
In brackets after ≈: the same amount, converted by molar mass. Like-named read-outs stand apart in the source and are kept apart here.

Legend:
[1] = tested on: HepG2 cells; experiment: Cytotoxicity, CellTiter 96 assay; format: cell-based, human; conditions: Homo sapiens, HepG2, 24 h, 24 h incubation
In short: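 HepG2 cells (10,000/well) exposed 24 h at 37 °C, 5% CO2 to compounds in DMSO (≤1% v/v final), triplicates. Viability by tetrazolium-to-formazan reduction (CellTiter 96 AQueous One), absorbance 490 nm after 2 h. IC50 from nonlinear regression versus untreated controls; 10% DMSO defined 0% viability.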

[2] = tested on: M. kansasii 6509/96 (clinical isolate); experiment: Antimycobacterial micromethod in Šula's medium, M. kansasii 6509/96; format: cell-based; conditions: Mycobacterium kansasii
[3] = tested on: Aspergillus fumigatus 231; experiment: Antifungal microdilution broth method, A. fumigatus; format: cell-based
In short: (§1)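 Panel covers five yeasts and three filamentous fungi tested by a slightly modified EUCAST microdilution protocol. Growth medium is glucose-supplemented (2%) RPMI-1640 with L-glutamine at pH 7.0 (MOPS). Endpoints are judged visually from duplicate runs.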

[4] = tested on: Mycobacterium tuberculosis H37Rv (331/88); experiment: Antimycobacterial micromethod in Šula's medium, M. tuberculosis; format: cell-based
[5] = tested on: Escherichia coli ATCC 25922, CCM 3954; experiment: Antibacterial microdilution broth method, E. coli; format: cell-based; conditions: Escherichia coli
[6] = tested on: Staphylococcus aureus ATCC 29213, CCM 4223; experiment: Antibacterial microdilution broth method, S. aureus; format: cell-based
[7] = tested on: Mycobacterium avium 330/88; experiment: Antimycobacterial micromethod in Šula's medium, M. avium; format: cell-based
[8] = tested on: Staphylococcus epidermidis H 6966/08; experiment: Antibacterial microdilution broth method, S. epidermidis; format: cell-based; conditions: Staphylococcus epidermidis, H6966/08
[9] = tested on: Enterococcus faecalis ATCC 29212, CCM 4224; experiment: Antibacterial microdilution broth method, E. faecalis; format: cell-based; conditions: Enterococcus faecalis
[10] = tested on: Candida albicans ATCC 44859; experiment: Antifungal microdilution broth method, C. albicans; format: cell-based
In short: as §1

[11] = tested on: ESBL-positive Klebsiella pneumoniae J 14368/08
[12] = tested on: Trichosporon asahii 1188; experiment: Antifungal microdilution broth method, T. asahii; format: cell-based
In short: as §1

[13] = tested on: Candida tropicalis 156; experiment: Antifungal microdilution broth method, C. tropicalis; format: cell-based
In short: as §1

[14] = tested on: Trichophyton interdigitale 445; experiment: Antifungal microdilution broth method, T. interdigitale; format: cell-based
In short: as §1

[15] = tested on: Candida krusei E28; experiment: Antifungal microdilution broth method, C. krusei; format: cell-based; conditions: Pichia kudriavzevii
In short: as §1

[16] = tested on: Lichtheimia corymbifera 272; experiment: Antifungal microdilution broth method, L. corymbifera; format: cell-based
In short: as §1

[17] = tested on: Pseudomonas aeruginosa ATCC 27853, CCM 3955; experiment: Antibacterial microdilution broth method, P. aeruginosa; format: cell-based; conditions: Pseudomonas aeruginosa, P. aeruginosa
[18] = 168 h, 7 days incubation at 37 °C, read-out: MIC M. kansasii 6509/96 7 d
[19] = 336 h, 14 days incubation at 37 °C, read-out: MIC M. kansasii 6509/96 14 d
[20] = 504 h, 21 days incubation at 37 °C, read-out: MIC M. kansasii 6509/96 21 d
[21] = 336 h, 14 days incubation at 37 °C, read-out: MIC Mtb. 331/88 14 d
[22] = 504 h, 21 days incubation at 37 °C, read-out: MIC Mtb. 331/88 21 d
[23] = 24 h incubation, read-out: MIC EC 24 h
[24] = 48 h incubation, read-out: MIC EC 48 h
[25] = 24 h incubation, read-out: MIC SA 24 h
[26] = 48 h incubation, read-out: MIC SA 48 h
[27] = 330/88, 336 h, 14 days incubation at 37 °C, read-out: MIC M. avium 330/88 14 d
[28] = 330/88, 504 h, 21 days incubation at 37 °C, read-out: MIC M. avium 330/88 21 d
[29] = S. epidermidis, 24 h incubation, read-out: MIC SE 24 h
[30] = S. epidermidis, 48 h incubation, read-out: MIC SE 48 h
[31] = 24 h incubation, read-out: MIC EF 24 h
[32] = 48 h incubation, read-out: MIC EF 48 h
[33] = ATCC44859, 24 h, read-out: MIC CA 24 h
[34] = ATCC44859, 48 h, read-out: MIC CA 48 h
[35] = 24 h incubation, read-out: MIC PA 24 h
[36] = 48 h incubation, read-out: MIC PA 48 h

Compound | IC50 [1] [µM] | MIC [2, 18] [µM] | MIC [2, 19] [µM] | MIC [2, 20] [µM] | MIC ([3]; 24 h, read-out: MIC AF 24 h) [µM] | MIC ([3]; 48 h, read-out: MIC AF 48 h) [µM] | MIC [4, 21] [µM] | MIC [4, 22] [µM] | MIC [5, 23] [µM] | MIC [5, 24] [µM] | MIC [6, 25] [µM] | MIC [6, 26] [µM] | MIC [7, 27] [µM] | MIC [7, 28] [µM] | MIC [8, 29] [µM] | MIC [8, 30] [µM] | MIC [9, 31] [µM] | MIC [9, 32] [µM] | MIC [10, 33] [µM] | MIC [10, 34] [µM] | other results
CC(C)(C)c1ccc(O)c(C=Nc2ccc(C(=O)O)cc2)c1 [1j, 4-{[5-(Tert-butyl)-2-hydroxybenzylidene]amino}benzoic acid] | 80.8 | 250 (≈ 74.3 µg/mL) | 250 (≈ 74.3 µg/mL) | 500 (≈ 149 µg/mL) | > 500 | > 500 | 250 (≈ 74.3 µg/mL) | 250 (≈ 74.3 µg/mL) | > 500 | > 500 | > 500 | > 500 | 1000 (≈ 297 µg/mL) | > 1000 | > 500 | > 500 | > 500 | > 500 | > 500 | > 500 | MIC KP-E 24 h [11]: >500 µM; MIC KP-E 48 h [11]: >500 µM; MIC ([12]; 24 h, read-out: MIC TA 24 h): > 500 µM; MIC ([12]; 48 h, read-out: MIC TA 48 h): > 500 µM; MIC ([13]; 24 h, read-out: MIC CT 24 h): > 500 µM; MIC ([13]; 48 h, read-out: MIC CT 48 h): > 500 µM; MIC ([14]; 72 h, read-out: MIC TI 72 h): > 500 µM; MIC ([14]; 120 h, read-out: MIC TI 120 h): > 500 µM; MIC ([15]; 24 h, read-out: MIC CK 24 h): > 500 µM; MIC ([15]; 48 h, read-out: MIC CK 48 h): > 500 µM; MIC ([16]; 24 h, read-out: MIC LC 24 h): > 500 µM; MIC ([16]; 48 h, read-out: MIC LC 48 h): > 500 µM; MIC [17, 35]: > 500 µM; MIC [17, 36]: > 500 µM
O=C(O)c1ccc(N=Cc2c(O)cccc2Cl)cc1 [1k, 4-[(2-Chloro-6-hydroxybenzylidene)amino]benzoic acid] | 280 | 250 (≈ 68.9 µg/mL) | 250 (≈ 68.9 µg/mL) | 500 (≈ 138 µg/mL) | > 125 | > 125 | 250 (≈ 68.9 µg/mL) | 500 (≈ 138 µg/mL) | > 500 | > 500 | > 500 | > 500 | 500 (≈ 138 µg/mL) | 1000 (≈ 276 µg/mL) | > 500 | > 500 | > 500 | > 500 | 125 (≈ 34.5 µg/mL) | 125 (≈ 34.5 µg/mL) | MIC KP-E 24 h [11]: >500 µM; MIC KP-E 48 h [11]: >500 µM; MIC ([12]; 24 h, read-out: MIC TA 24 h): 125 µM (≈ 34.5 µg/mL); MIC ([12]; 48 h, read-out: MIC TA 48 h): > 125 µM; MIC ([13]; 24 h, read-out: MIC CT 24 h): 62.5 µM (≈ 17.2 µg/mL); MIC ([13]; 48 h, read-out: MIC CT 48 h): 125 µM (≈ 34.5 µg/mL); MIC ([14]; 72 h, read-out: MIC TI 72 h): 125 µM (≈ 34.5 µg/mL); MIC ([14]; 120 h, read-out: MIC TI 120 h): 125 µM (≈ 34.5 µg/mL); MIC ([15]; 24 h, read-out: MIC CK 24 h): 125 µM (≈ 34.5 µg/mL); MIC ([15]; 48 h, read-out: MIC CK 48 h): 250 µM (≈ 68.9 µg/mL); MIC ([16]; 24 h, read-out: MIC LC 24 h): > 125 µM; MIC ([16]; 48 h, read-out: MIC LC 48 h): > 125 µM; MIC [17, 35]: > 500 µM; MIC [17, 36]: > 500 µM
O=C(O)c1ccc(N=Cc2ccc(Cl)cc2O)cc1 [1l, 4-[(4-Chloro-2-hydroxybenzylidene)amino]benzoic acid] | 264 | 250 (≈ 68.9 µg/mL) | 250 (≈ 68.9 µg/mL) | 500 (≈ 138 µg/mL) | 250 (≈ 68.9 µg/mL) | > 500 | 250 (≈ 68.9 µg/mL) | 500 (≈ 138 µg/mL) | > 500 | > 500 | > 500 | > 500 | 1000 (≈ 276 µg/mL) | 1000 (≈ 276 µg/mL) | > 500 | > 500 | > 500 | > 500 | 250 (≈ 68.9 µg/mL) | > 500 | MIC KP-E 24 h [11]: >500 µM; MIC KP-E 48 h [11]: >500 µM; MIC ([12]; 24 h, read-out: MIC TA 24 h): 500 µM (≈ 138 µg/mL); MIC ([12]; 48 h, read-out: MIC TA 48 h): > 500 µM; MIC ([13]; 24 h, read-out: MIC CT 24 h): 500 µM (≈ 138 µg/mL); MIC ([13]; 48 h, read-out: MIC CT 48 h): > 500 µM; MIC ([14]; 72 h, read-out: MIC TI 72 h): 500 µM (≈ 138 µg/mL); MIC ([14]; 120 h, read-out: MIC TI 120 h): > 500 µM; MIC ([15]; 24 h, read-out: MIC CK 24 h): 500 µM (≈ 138 µg/mL); MIC ([15]; 48 h, read-out: MIC CK 48 h): > 500 µM; MIC ([16]; 24 h, read-out: MIC LC 24 h): > 500 µM; MIC ([16]; 48 h, read-out: MIC LC 48 h): > 500 µM; MIC [17, 35]: > 500 µM; MIC [17, 36]: > 500 µM
O=C(O)c1ccc(N=Cc2cccc(Cl)c2O)cc1 [1m, 4-[(3-Chloro-2-hydroxybenzylidene)amino]benzoic acid] | 247 | 250 (≈ 68.9 µg/mL) | 500 (≈ 138 µg/mL) | 500 (≈ 138 µg/mL) | 250 (≈ 68.9 µg/mL) | 250 (≈ 68.9 µg/mL) | 500 (≈ 138 µg/mL) | 500 (≈ 138 µg/mL) | > 500 | > 500 | > 500 | > 500 | 1000 (≈ 276 µg/mL) | 1000 (≈ 276 µg/mL) | 500 (≈ 138 µg/mL) | 500 (≈ 138 µg/mL) | > 500 | > 500 | 31.2 (≈ 8.62 µg/mL) | 31.2 (≈ 8.62 µg/mL) | MIC ([8]; time not stated, read-out: MIC, S. epidermidis): ≥ 250 µM; MIC KP-E 24 h [11]: >500 µM; MIC KP-E 48 h [11]: >500 µM; MIC ([12]; 24 h, read-out: MIC TA 24 h): 125 µM (≈ 34.5 µg/mL); MIC ([12]; 48 h, read-out: MIC TA 48 h): 125 µM (≈ 34.5 µg/mL); MIC ([13]; 24 h, read-out: MIC CT 24 h): 62.5 µM (≈ 17.2 µg/mL); MIC ([13]; 48 h, read-out: MIC CT 48 h): 62.5 µM (≈ 17.2 µg/mL); MIC ([14]; 72 h, read-out: MIC TI 72 h): 125 µM (≈ 34.5 µg/mL); MIC ([14]; 120 h, read-out: MIC TI 120 h): 125 µM (≈ 34.5 µg/mL); MIC ([15]; 24 h, read-out: MIC CK 24 h): 250 µM (≈ 68.9 µg/mL); MIC ([15]; 48 h, read-out: MIC CK 48 h): 250 µM (≈ 68.9 µg/mL); MIC ([16]; 24 h, read-out: MIC LC 24 h): 500 µM (≈ 138 µg/mL); MIC ([16]; 48 h, read-out: MIC LC 48 h): 500 µM (≈ 138 µg/mL); MIC [17, 35]: > 500 µM; MIC [17, 36]: > 500 µM
